{"source": "patent US10752617B2", "about": "(GALDERMA RESEARCH & DEVELOPMENT, priority 2014, dated 2020)", "key": {"[1]": {"target": "T1, GAL4-RORγ (GAL4 DBD fused to the ROR gamma ligand-binding domain) (Homo sapiens, UniProt P51449)", "T1 construct": "expressed in transfected cells; host or cells: HG5LN (HeLa line with GAL4-responsive luciferase reporter)", "T1 sequence (P51449 269-508 limits assumed)": "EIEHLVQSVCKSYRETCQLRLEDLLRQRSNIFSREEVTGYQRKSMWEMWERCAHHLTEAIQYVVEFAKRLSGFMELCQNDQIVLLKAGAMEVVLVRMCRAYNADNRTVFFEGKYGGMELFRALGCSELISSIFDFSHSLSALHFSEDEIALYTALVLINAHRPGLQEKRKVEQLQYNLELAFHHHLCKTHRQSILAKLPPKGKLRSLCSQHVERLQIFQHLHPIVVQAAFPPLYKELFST", "assay": "GAL4-RORγ transactivation (luciferase reporter, HG5LN HeLa line)", "type": "cell-based", "conditions": "HG5LN HeLa cells, 18 hours incubation, luciferase luminescence, read-out: IC50 hRORg", "excerpt": "(§1) In the tables described above, the median inhibitory concentrations IC50 for the compounds belonging to formula (I) according to the invention have been given according to the following models:\nGAL4-RORγ Transactivation\nThe RORγ transactivation model was developed from the line HG5LN, which is a HeLa line that stably expresses a luciferase reporter gene controlled by a pentamer of the GAL4 recognition domain of yeast and of a β-globin promoter. The HG5LN line was stably transfected by the DNA-binding domain (DBD) of GAL4 fused to the ROR gamma ligand-binding domain (LBD). Molecules that inhibit the ROR gamma constitutive activity reduce the luciferase expression, thus leading to a reduction in the emitted luminescence.\nThe cells are seeded in 384-well plates (5000 cells in 45 μL/well of culture medium containing 10% fetal calf serum) and incubated for 4 hours at 37° C., 5% CO2. 5 μL of the test molecules (compounds described in the tables described above) are then added to each well and the plates are incubated for 18 hours at a temperature of 37° C. under 5% of CO2. 20 μL of luciferase substrate (Promega) are added to each well and the luminescence emitted is read by a microplate reader.\nThe luminescence units (“RLU”) are normalized by positive controls (“POS” containing a saturated concentration of N-(2,2,2-trifluoroethyl)-N-[4-[2,2,2-trifluoro-1-hydroxy-1-(trifluoromethyl)ethyl]phenyl])benzenesulfonamide and negative controls (“NEG” containing DMSO): % inhibition=((RLU−NEG)*100)/(POS−NEG). The IC50 values are calculated from a 4-parameter logistic model using the XLFit software (IDBS)."}, "[2]": {"test_system": "IL-17A secretion by CD4+ cells", "assay": "IL-17A secretion by activated CD4+ cells (HTRF)", "type": "cell-based", "conditions": "96 h; human CD4+ cells activated with anti-CD3 and anti-CD28, 4 days of incubation, inhibitors 1000 nM to 0.05 nM; read-out: IC50 hCD4/IL17", "protocol": "as §1\nThis model allows measurement of the effect of inhibitors on IL-17A secretion by CD4+ cells. The cells are frozen CD4+ cells (STEMCELL, #70026), isolated from peripheral human blood and activated with anti-CD3 and anti-CD28 antibodies. The amount of IL-17a secreted is measured by the TR-FRET (kit HTRF® Human Interleukin 17A (Cisbio, #64H17PEC)) technology.\nThe cells are rapidly thawed, resuspended in their culture medium (RPMI inactivated 10% FCS) supplemented with soluble anti-CD28 antibodies and seeded (100 000 cells/well) in 96-well plates precoated with anti-CD3 antibodies. The cells are then treated with the ranges of inhibitors to be tested (from 1000 nM to 0.05 nM, 0.1% DMSO). After 4 days of incubation, the HTRF signal is measured using a microplate reader (λexcitation=337 nm, λemission=620/665 nm). The ratios obtained (665/620) are normalized relative to the positive control (cells activated with anti-CD3 and anti-CD28, 0.1% DMSO). The IC50 values are calculated from a 4-parameter logistic model using the XLFit software (IDBS)."}}}
{"compound": "CC(C)CN(c1ccc(N(C)C)cc1)S(=O)(=O)c1ccc2c(cnn2CC2CCOCC2)c1", "note": "[Compound 72, 1-(tetrahydropyran-4-ylmethyl)-1H-indazole-5-sulfonic acid (4-dimethylaminophenyl)isobutylamide]", "values": [{"measurement": "IC50", "setting": "[1]", "result": "100 to 1000", "unit": "nM"}, {"measurement": "IC50", "setting": "[2]", "result": "100 to 1000", "unit": "nM"}]}
{"compound": "CCc1ccc(N(CC(C)C)S(=O)(=O)c2ccc3c(CC4CCOCC4)n[nH]c3c2)cc1", "note": "[Compound 63, 3-(tetrahydropyran-4-ylmethyl)-1H-indazole-6-sulfonic acid (4-ethylphenyl)isobutylamide]", "values": [{"measurement": "IC50", "setting": "[1]", "result": "< 100", "unit": "nM"}, {"measurement": "IC50", "setting": "[2]", "result": "< 100", "unit": "nM"}]}
{"compound": "CCc1ccc(N(CC(C)C)S(=O)(=O)c2ccc3c(cnn3CC3CCOCC3)c2)cc1", "note": "[Compound 39, N-(4-ethylphenyl)-N-isobutyl-1-((tetrahydro-2H-pyran-4-yl)methyl)-1H-indazole-5-sulfonamide]", "values": [{"measurement": "IC50", "setting": "[1]", "result": "100 to 1000", "unit": "nM"}, {"measurement": "IC50", "setting": "[2]", "result": "100 to 1000", "unit": "nM"}]}
{"compound": "CCc1ccc(N(CC(C)C)S(=O)(=O)c2ccc3c(CN4CCOCC4)n[nH]c3c2)cc1", "note": "[Compound 64, 3-morpholin-4-ylmethyl-1H-indazole-6-sulfonic acid (4-ethylphenyl)isobutylamide]", "values": [{"measurement": "IC50", "setting": "[1]", "result": "< 100", "unit": "nM"}, {"measurement": "IC50", "setting": "[2]", "result": "< 100", "unit": "nM"}]}
{"compound": "COC(=O)c1ccc(N(CC(C)C)S(=O)(=O)c2ccc3c(cnn3CC3CCOCC3)c2)c(C)c1", "note": "[Compound 56, methyl 4-{isobutyl[1-(tetrahydropyran-4-ylmethyl)-1H-indazole-5-sulfonyl]amino}-3-methylbenzoate]", "values": [{"measurement": "IC50", "setting": "[1]", "result": "100 to 1000", "unit": "nM"}, {"measurement": "IC50", "setting": "[2]", "result": "< 100", "unit": "nM"}]}
{"compound": "CCc1ccc(N(C(CC)CC)S(=O)(=O)c2ccc3c(cnn3CC3CCOCC3)c2)cc1", "note": "[Compound 1, 1-(tetrahydropyran-4-ylmethyl)-1H-indazole-5-sulfonic acid (4-ethylphenyl)(1-ethylpropyl)amide]", "values": [{"measurement": "IC50", "setting": "[1]", "result": "100 to 1000", "unit": "nM"}, {"measurement": "IC50", "setting": "[2]", "result": "100 to 1000", "unit": "nM"}]}
{"compound": "CCc1ccc(N(CC(C)C)S(=O)(=O)c2ccc3c(cnn3Cc3ccncc3)c2)cc1", "note": "[Compound 36, N-(4-ethylphenyl)-N-isobutyl-1-(pyridin-4-ylmethyl)-1H-indazole-5-sulfonamide]", "values": [{"measurement": "IC50", "setting": "[1]", "result": "100 to 1000", "unit": "nM"}, {"measurement": "IC50", "setting": "[2]", "result": "< 100", "unit": "nM"}]}
{"compound": "CCc1ccc(N(CC(C)C)S(=O)(=O)c2ccc3c(cnn3CC3COC3)c2)cc1", "note": "[Compound 37, N-(4-ethylphenyl)-N-isobutyl-1-(oxetan-3-ylmethyl)-1H-indazole-5-sulfonamide]", "values": [{"measurement": "IC50", "setting": "[1]", "result": "100 to 1000", "unit": "nM"}, {"measurement": "IC50", "setting": "[2]", "result": "< 100", "unit": "nM"}]}
{"compound": "Cc1cc(C)c(N(CC(C)C)S(=O)(=O)c2ccc3c(cnn3CC3CCOCC3)c2)cn1", "note": "[Compound 71, 1-(tetrahydropyran-4-ylmethyl)-1H-indazole-5-sulfonic acid (4,6-dimethylpyridin-3-yl)isobutylamide]", "values": [{"measurement": "IC50", "setting": "[1]", "result": "> 1000", "unit": "nM"}, {"measurement": "IC50", "setting": "[2]", "result": "> 1000", "unit": "nM"}]}
